23 compounds from patent publication US9353150B2, “Substituted pyrazino[1′,2′:1 ,5]pyrrolo[2,3-b]-indole-1,4-diones for cancer treatment” (Massachusetts Institute of Technology, priority 2012, dated 2016) can be followed below.

Broadly, the IC50 is the concentration that inhibits the measured activity by half.

SMILES strings stand for the structures. Like-named read-outs stand apart in the source and are kept apart here. Where only a bound is given, the exact number is not on record here.

For assay [1], the system named is HeLa (cervical carcinoma). Kind of assay: 72-hour IC50 determination for adherent cells using sulforhodamine B (SRB). The format is cell-based, human. The procedure: (§1) Certain synthesized compounds were screened for their ability to induce death in two human cancer cell lines: U-937 (leukemic monocyte lymphoma) and HeLa (cervical cancer).
(§2) Cells were grown in media supplemented with fetal bovine serum (FBS) and antibiotics ([…]). Specifically, experiments were performed using the following cell lines and media compositions: U-937, HeLa, H460, and 786-O (RPMI-1640+10% FBS), and MCF7 (EMEM+10% FBS). Cells were incubated at 37° C. in a 5% CO2, 95% humidity atmosphere.
(§3) Adherent cells (HeLa, H460, 786-O, and MCF7) were added into 96-well plates (5,000 cells/well for HeLa cell line; 2,000 cells/well for H460, 786-O, and MCF7 cell lines) in 100 μL media and were allowed to adhere for 2-3 hours. Compounds were solubilized in DMSO as 100× stocks, added directly to the cells (100 μL final volume), and tested over a range of concentrations in triplicate (1% DMSO final) on a half-log scale. Concentrations tested ranged from […] to 10 μM, depending on the potency of the compound. DMSO and cell-free wells served as the live and dead control, respectively. After 72 hours of continuous exposure, the plates were evaluated using the SRB colorimetric assay as described previously (Vichai, V.; Kirtikara, K. Nature Prot. 2006, 1, 1112). Briefly, media was removed from the plate, and cells were fixed by the addition of 100 μL cold 10% trichloroacetic acid in water. After incubating at 4° C. for an hour, the plates were washed in water and allowed to dry. Sulforhodamine B was added as a 0.057% solution in 1% acetic acid (100 μL), and the plates were incubated at room temperature for 30 minutes, washed in 1% acetic acid, and allowed to dry. The dye was solubilized by adding 10 mM Tris base solution (pH 10.5, 200 μL) and incubating at room temperature for 30 minutes. Plates were read at λ=510 nm. IC50 values were determined from three or more independent experiments using TableCurve (San Jose, Calif.).

The test system of assay [2] is U-937 (hystiocytic lymphoma). Nature of the assay: 72-hour IC50 determination for non-adherent cells using MTS. Type of assay: cell-based, human. The procedure:
as §1, §2
(§4) In a 96-well plate, compounds were pre-added as DMSO stocks in triplicate to achieve a final concentration of 1%. DMSO and cell-free wells served as the live and dead control, respectively. U-937 (5,000 cells/well) cells were distributed in 100 μL media to the compound-containing plate. After 72 hours, cell viability was assessed by adding 20 μL of a PMS/MTS solution (Cory, A. H.; Owen, T. C.; Barltrop, J. A.; Cory, J. G. Cancer Commun. 1991, 3, 207) to each well, allowing the dye to develop at 37° C. until the live control had processed MTS, and reading the absorbance at λ=490 nm. IC50 values were determined from three or more independent experiments using TableCurve (San Jose, Calif.).

The next assay relates to human cancer cell lines. Nature of the assay: Anticancer activity in human cancer cell lines, not tied to one cell line. Type of assay: cell-based. The settings on record: human cancer cell lines, 72-hour exposure. Here is the method: as §1
Certain provided compounds were tested in culture against a panel of three supplementary human cancer cell lines representing three additional tumor histologies (H460, lung carcinoma; 786-O, renal carcinoma; MCF-7, breast carcinoma). As shown in Table E1-2, the ETPs retain their potency across the cell lines. In some embodiments, a provided compound is active in all cell lines. In some embodiments, a provide compound can be used to selectively target certain cells and/or cancers. […] Without the intention to be limited, Applicant notes that certain cell lines could be more sensitive to provided compounds; for example, U-937 and HeLa are slightly more sensitive to the ETPs than the other three cell lines.
as §3, §4

[3] abbreviates: 72-hour exposure, SRB, error is standard deviation of the mean, n ≧ 3, read-out: HeLa, 72-hour IC50 (Table E1-1).
Setting [4] is: 72-hour exposure, MTS, error is standard deviation of the mean, n ≧ 3, read-out: U-937, 72-hour IC50 (Table E1-1).
Where [5] appears, read: Homo sapiens, HeLa, 72 h, read-out: HeLa, 72-hour IC50 (Table E1-1).
[6] abbreviates: Homo sapiens, U-937, 72 h, read-out: U-937, 72-hour IC50 (Table E1-1).
The mark [7] stands for this setting: Homo sapiens, HeLa, 72-hour exposure, SRB, error is standard deviation of the mean, n ≧ 3, read-out: HeLa, 72-hour IC50 (Table E1-1).
Setting [8] is: Homo sapiens, U-937, 72-hour exposure, MTS, error is standard deviation of the mean, n ≧ 3, read-out: U-937, 72-hour IC50 (Table E1-1).

Regarding `CS[C@H]1C(=O)N2[C@H]3Nc4ccccc4[C@@]3(c3c[nH]c4ccccc34)C[C@]2(SC)C(=O)N1C` [Compound 7, (+)-gliocladin B], the IC50 in assay [1] (setting [3]) and in assay [2] (setting [4]) was greater than 10 µM throughout.
On to `CC(=O)OC[C@@]1(OC(=O)C(C)C)C(=O)N2[C@H]3N(S(=O)(=O)c4ccccc4)c4ccccc4[C@@]3([C@]34C[C@]5(SSSC(c6ccccc6)(c6ccccc6)c6ccccc6)C(=O)N(C)[C@](COC(C)=O)(OC(=O)C(C)C)C(=O)N5[C@H]3N(S(=O)(=O)c3ccccc3)c3ccccc34)C[C@]2(SSSC(c2ccccc2)(c2ccccc2)c2ccccc2)C(=O)N1C` [Compound 19, Dimeric bis(triphenylmethanetrisulfide)], for which the half-maximal inhibitory concentration (IC50) in assay [1] (setting [3]) and in assay [2] (setting [4]) was greater than 10 µM in each case.
Take `CC(=O)OC[C@@]1(OC(=O)C(C)C)C(=O)N2[C@H]3Nc4ccccc4[C@@]3([C@]34C[C@]5(SSSC(c6ccccc6)(c6ccccc6)c6ccccc6)C(=O)N(C)[C@](COC(C)=O)(OC(=O)C(C)C)C(=O)N5[C@H]3Nc3ccccc34)C[C@]2(SSSC(c2ccccc2)(c2ccccc2)c2ccccc2)C(=O)N1C` [Compound 20]: the IC50 in assay [1] (setting [3]) and in assay [2] (setting [4]) was greater than 10 µM each time.
As for `C[C@H]1C(=O)N2[C@@H](C[C@]3([C@]45C[C@H]6C(=O)N(C)[C@@H](C)C(=O)N6[C@H]4N(S(=O)(=O)c4ccccc4)c4ccccc45)c4ccccc4N(S(=O)(=O)c4ccccc4)[C@H]23)C(=O)N1C` [Compound 21], the results for the 50% inhibitory concentration (IC50) in assay [1] (setting [3]) and in assay [2] (setting [4]) were greater than 10 µM and greater than 1 µM, respectively.
As to `CN1C(=O)[C@]2(O)C[C@]3([C@]45C[C@@]6(O)C(=O)N(C)[C@](C)(O)C(=O)N6[C@H]4N(S(=O)(=O)c4ccccc4)c4ccccc45)c4ccccc4N(S(=O)(=O)c4ccccc4)[C@@H]3N2C(=O)[C@@]1(C)O` [Compound 22], the half-inhibitory concentration (IC50) in assay [1] (setting [3]) was greater than 10 µM; in assay [2] (setting [4]), greater than 1 µM.
For `CN1C(=O)[C@]2(O)C[C@]3([C@]45C[C@@]6(O)C(=O)N(C)[C@](C)(O[Si](C)(C)C(C)(C)C)C(=O)N6[C@H]4N(S(=O)(=O)c4ccccc4)c4ccccc45)c4ccccc4N(S(=O)(=O)c4ccccc4)[C@@H]3N2C(=O)[C@@]1(C)O[Si](C)(C)C(C)(C)C` [Compound 23], in that order: greater than 10 µM and greater than 1 µM.
As for `CN1C(=O)[C@@]23C[C@]4(c5cn(C(=O)OC(C)(C)C)c6ccccc56)c5ccccc5N(S(=O)(=O)c5ccccc5)[C@@H]4N2C(=O)[C@@H]1SS3` [Compound 24, C3-(N-Boc-indol-3′-yl) epidithiodiketopiperazine], the concentration for half-maximal inhibition (IC50) in assay [1] (setting [5]) is 0.075 ± 0.01 µM; in assay [1] (Homo sapiens, HeLa, 72 h, read-out: IC50 (HeLa)), 0.022 to 0.075 µM; in assay [2] (Homo sapiens, U-937, 72 h, read-out: IC50 (U-937)), 0.0028 to 0.0148 µM; in assay [2] (setting [6]), 0.0059 ± 0.0014 µM.
As for `CN1C(=O)[C@]23C[C@]4(Br)c5ccccc5N(S(=O)(=O)c5ccccc5)[C@@H]4N2C(=O)[C@H]1SS3` [Compound 34, C3-Bromo epidithiodiketopiperazines], the IC50 in assay [1] (setting [3]) turned out to be 0.55 ± 0.033 µM; in assay [2] (setting [4]), 0.059 ± 0.023 µM. Moreover, the “anticancer activity, in words” value in the assay with human cancer cell lines is “inactive”.
With `CN1C(=O)C23CC4(c5c[nH]c6ccccc56)c5ccccc5N(S(=O)(=O)c5ccccc5)[C@@H]4N2C(=O)[C@H]1SCS3` (some centres unmarked) [Compound 38, C3-(Indol-3′-yl)dithioacetal], the half-maximal inhibitory concentration (IC50) was found to be 0.465 ± 0.037 µM in assay [1] (setting [7]) and 0.082 ± 0.028 µM in assay [2] (setting [8]). Moreover, the “anticancer activity, in words” value in the assay on human cancer cell lines is listed as “active”.
For `CS[C@H]1C(=O)N2[C@H]3N(S(=O)(=O)c4ccccc4)c4ccccc4[C@@]3(c3c[nH]c4ccccc34)C[C@]2(SC)C(=O)N1C` [Compound 39], the IC50 in assay [1] (setting [3]) and in assay [2] (setting [4]) was greater than 10 µM throughout.
Consider `COCCOCS[C@H]1C(=O)N2[C@H]3N(S(=O)(=O)c4ccccc4)c4ccccc4[C@@]3(c3cn(C(=O)OC(C)(C)C)c4ccccc34)C[C@]2(SCOCCOC)C(=O)N1C` [Compound 42, C3-(N-Boc-indol-3′-yl)bis(S-MEM)ether], for which the IC50 in assay [1] (setting [3]) and in assay [2] (setting [4]) was greater than 10 µM in each case.
For the compound `COCCOCS[C@H]1C(=O)N2[C@H]3N(S(=O)(=O)c4ccccc4)c4ccccc4[C@@]3(c3cn(C(=O)OC(C)(C)C)c4ccccc34)C[C@]2(S)C(=O)N1C` [Compound 47, C3-(N-Boc-indol-3′-yl) S15-MEM ether], the 50% inhibitory concentration (IC50) in assay [1] (setting [3]) and in assay [2] (setting [4]) was greater than 10 µM each time.
Consider `CN1C(=O)[C@@]2(S)C[C@]3(c4c[nH]c5ccccc45)c4ccccc4N(S(=O)(=O)c4ccccc4)[C@@H]3N2C(=O)[C@H]1O` [Compound 48, C3-(Indol-3′-yl) C11-thiohemiaminal], for which the IC50 in assay [1] (setting [7]) and in assay [2] (setting [8]) was greater than 10 µM each time.
In the case of `COCS[C@]12C[C@]3(c4cn(C(=O)OC(C)(C)C)c5ccccc45)c4ccccc4N(S(=O)(=O)c4ccccc4)[C@@H]3N1C(=O)CN(C)C2=O` [Compound 49], the IC50 in assay [1] (setting [3]) and in assay [2] (setting [4]) was greater than 10 µM throughout.
For `CC(C)C(=O)O[C@@H]1C(=O)N2[C@H]3N(S(=O)(=O)c4ccccc4)c4ccccc4[C@@]3(c3c[nH]c4ccccc34)C[C@]2(SC(=O)C(C)C)C(=O)N1C` [Compound 50], the half-maximal inhibitory concentration (IC50) in assay [1] (setting [3]) and in assay [2] (setting [4]) was greater than 1 µM throughout.
On to `CC(C)C(=O)O[C@@H]1C(=O)N2[C@H]3Nc4ccccc4[C@@]3(c3c[nH]c4ccccc34)C[C@]2(SC(=O)C(C)C)C(=O)N1C` [Compound 51], for which the half-maximal inhibitory concentration (IC50) in assay [1] (setting [3]) is greater than 1 µM; in assay [2] (setting [4]), greater than 10 µM.
As for `CN1C(=O)C(=O)N2C(=C[C@]3(c4c[nH]c5ccccc45)c4ccccc4N[C@H]23)C1=O` [Compound 52, (+)-Gliocladin C], the 50% inhibitory concentration (IC50) in assay [1] (setting [5]) and in assay [2] (setting [6]) was greater than 10 µM throughout.
On to `CC(C)[Si](O[C@@H]1C(=O)N2C(=C[C@]3(c4c[nH]c5ccccc45)c4ccccc4N(C(=O)C(F)(F)F)[C@H]23)C(=O)N1C)(C(C)C)C(C)C` [Compound 53], for which the half-inhibitory concentration (IC50) in assay [1] (setting [7]) and in assay [2] (setting [8]) was greater than 10 µM in each case.
As to `CN1CC(=O)N2[C@@H](C[C@]3(Br)c4ccccc4N(S(=O)(=O)c4ccccc4)[C@H]23)C1=O` [Compound 54], the IC50 in assay [1] (setting [7]) and in assay [2] (setting [8]) was greater than 10 µM each time.
As for `CN1C(=O)[C@]2(O)C[C@]3(c4c[nH]c5ccccc45)c4ccccc4N(S(=O)(=O)c4ccccc4)[C@@H]3N2C(=O)[C@H]1O` [Compound 56, C3-(Indol-3′-yl) hexacyclic Diol], the IC50 in assay [1] (setting [3]) and in assay [2] (setting [4]) was greater than 10 µM in each case.
Regarding `CC(C)[Si](O[C@@H]1C(=O)N2[C@H]3N(S(=O)(=O)c4ccccc4)c4ccccc4[C@@]3(c3c[nH]c4ccccc34)C[C@@]2(O)C(=O)N1C)(C(C)C)C(C)C` [Compound 57], the half-inhibitory concentration (IC50) in assay [1] (setting [3]) and in assay [2] (setting [4]) was greater than 10 µM throughout.
On to `CC(C)[Si](O[C@@H]1C(=O)N2[C@H]3Nc4ccccc4[C@@]3(c3c[nH]c4ccccc34)C[C@@]2(O)C(=O)N1C)(C(C)C)C(C)C` [Compound 58], for which the half-maximal inhibitory concentration (IC50) in assay [1] (setting [3]) and in assay [2] (setting [4]) was greater than 10 µM each time.
Regarding `CN1CC(=O)N2C(CC3(c4c[nH]c5ccccc45)c4ccccc4N(S(=O)(=O)c4ccccc4)C23)C1=O` (centres unmarked) [Compound 59, C3-(indol-3′-yl)-pyrrolidinoindolne], the IC50 in assay [1] (setting [3]) and in assay [2] (setting [4]) was greater than 10 µM each time.
